One molecule from article PMC10746708, “A small molecule iCDM-34 identified by in silico screening suppresses HBV DNA through activation of aryl hydrocarbon receptor” (Cell Death Discovery, 2023) can be followed below.

A short description of series [1]: Liver microsomal stability, human. It counts as in vitro ADME. Particulars: human liver microsomes. As to the method:
(§1) Liver microsome stability studies (human, mouse, and rat) were performed at Sumika Chemical Analysis Service (Osaka, Japan) by following an established procedure. A mixture of 1 μM of substrate, 0.5 mg protein/mL of microsomes, and […] β-NADPH was incubated for 30 or 60 min and % remaining substrate was quantitatively measured by LC-MS/MS.
(In general: Microsomes from liver hold many membrane-bound enzymes, among them those of drug oxidation.)

The subject of another series is phospho-SAMHD1. As to the kind of experiment: Western blotting of phospho-SAMHD1 in HepG2-NTCP-C4 cells. It counts as cell-based, human. The following applies: 30 μM, 1 day. As to the method: HepG2-NTCP-C4 cells were treated with 30 μM iCDM-17 and iCDM-34 for 1 day. The cells were lyzed with 20 mM TrisHCl pH 7.5 containing 100 mM NaCl, 10 mM EDTA, 1% TritonX-100, 1% Sodium deoxycholate, PhosSTOP (Roche), Complete EDTA free. The lysates were sonicated 30 s and mixed for 1 h with rotation at 4 °C. The lysates were centrifuged at 15,000 rpm for 10 min at 4 °C. The supernatants were analyzed by Western blotting using anti-phospho-SAMHD1 (Thr592) (Cell signaling technology, 89930, 1/1000), anti-SAMHD1 (Cell signaling technology, 49158, 1/1000), and β−actin (Santa Cruz, 1/1000).
(In general: Immunoblotting shows a protein as a band on a membrane.)

Another series has as its system HBV genotype C. As to the kind of experiment: Anti-HBV activity in human hepatocyte-chimeric mice (liver HBV DNA). The format is in vivo, human hepatocyte-chimeric mice (PXB-mice). Particulars: 21 days. On the procedure:
PXB-mice (human liver chimeric cDNA-uPA^wild/+/SCID male mice) were generated by PhoenixBio. HBV genotype C was then inoculated into the mice via i.v.. After attaining 1.2 × 10^8–3.5 × 10^8 copies/mL of the serum HBV DNA levels, vehicle (10% 2-hydroxypropyl-beta-cyclodextrin and 10% polyethylene glycol 300) or 1 mg/kg iCDM-34 was i.v. injected with or without administration of 0.03 mg/kg ETV orally once a day for 21 days (n = 4). DNA was purified from the liver and its concentration was measured using NanoDrop Spectrophotometer (Thermo Fisher Scientific), followed by measurement of HBV DNA levels by qPCR according to a previously established method. The experimental procedures using the PXB-mice was approved by the Animal Ethics Committee of PhoenixBio.

The next series relates to JAK/STAT signaling. As to the kind of experiment: Western blotting of phospho-STAT1, STAT2, STAT3 in HCV replicon cells. The format is cell-based, human. The following applies: 30 μM, 24 h. As to the method:
HCV replicon cells were treated with 30 μM CDM-3008, iCDM-17, and iCDM-34 for 1 day. The cells were lyzed with 1 x SDS sample buffer containing PhosStop, Complete EDTA free, and 1 mM EDTA. After sonication for 30 s, the lysates were centrifuged at 12,000g for 10 min at 4 °C, and then the supernatants were collected. After reducing the 20 μg of supernatants with 50 mM DTT at 98 °C for 2 min, the samples were separated by SDS-PAGE. STAT1, STAT2, STAT3, pSTAT1, pSTAT2, and pSTAT3 were detected by Western blotting using anti-STAT1 (9175, 1/1000), STAT2 (72604, 1/1000), STAT3 (12640, 1/1000), pSTAT1 (Y701) (7649, 1/1000), pSTAT2 (Y690) (88410, 1/1000), and pSTAT3 (Y705) (9145, 1/1000) antibodies (Cell signaling technology, Massachusetts, USA).

In another series the test system is HCV replicon cells. The series is described as follows: AhR knockdown in HCV replicon cells, luciferase assay. The format is cell-based. The following applies: 30 μM, 2 days. On the procedure: For knockdown of AhR in the HCV replicon cells, 2 ×10^4 cells of HCV replicon cells were mixed with AhR siRNA (siGENOME Human AHR siRNA – Smart pool, Horizon Discovery, Cambridgeshire, United Kingdom) and X-tremeGene 360 transfection reagent (Roche) and plated on 96 well plates. After 2 days of knockdown, the cells were treated with 30 μM iCDM-17, iCDM-34, and CDM-3008 for 2 days. The quantity of HCV replicons and cell viability were measured. The cellular RNA was purified using Agencourt RNAdvance (Beckman Coulter, San Jose, CA) and reverse-transcribed using PrimeScript RT master mix (Takara Bio, Kusatsu, Japan) to measure amount of AhR and β-actin mRNAs by quantitative PCR.
Background: In antiviral work, replicon cells carry a viral genome segment that copies itself.

For another series, the system named is AhR signaling pathway. The series is described as follows: CYP mRNA qPCR in 3D cultured FLC-4 cells. The format is cell-based, human. The following applies: 1, 10 μM, 1 day. On the procedure: The human hepatocellular carcinoma cell line FLC-4 was cultured on micro-space cell culture plates (Elplasia SQ-200, -100, -24, Kuraray, Tokyo, Japan) maintained at 37 °C and 5 % CO2 according to the manufacturer’s protocol. FLC-4 cells suspended in DMEM/Ham’s F12 medium supplemented with 10% heat-inactivated fetal bovine serum, 100 U/mL penicillin G, and 100 μg/mL streptomycin were seeded at a density of 8.0 × 10^5 cells/well and cultured for 3 days. The medium was replenished every 72 h, completely removed, and replaced with serum-free medium containing 1–10 µM iCDM-34 or vehicle (DMSO). Total RNA was isolated from cells and reverse transcribed complementary DNA was subjected to quantitative qPCR. mRNA expression was determined using TaqMan Gene Expression Assays (Hs00167927_m1 for CYP1A2, Hs00604506_m1 for CYP3A4, for Hs00426397_m1 for CYP2C9; Thermo Fisher Scientific, Waltham, MA, USA). Expression levels were determined using the 2^–ΔΔCt method and were normalized to endogenous GAPDH mRNA expression levels.

Series [2] can be described thus: Liver microsomal stability, rat. The format is in vitro ADME. Particulars: rat liver microsomes. As to the method:
as §1

The nature of series [3]: Liver microsomal stability, mouse. The format is in vitro ADME. Particulars: mouse liver microsomes. On the procedure: as §1
The mark [4] stands for this setting: 1 μM substrate, 0.5 mg protein/mL, 30 min.
Setting [5] is: 1 μM substrate, 0.5 mg protein/mL, 60 min.

What is called half-life is the time needed for the level to fall by half in the phase considered. Lower therefore signals fast loss. The share remaining is the share of the starting amount still present when the sample was taken. Lower therefore signals a greater loss. With `O=C(Nc1ccc(Br)cc1)c1ccn(Cn2cc([N+](=O)[O-])cn2)n1` [iCDM-34], the half-life at 1 μM was 506 min in series [1], 199 min in series [2] and 33.1 min in series [3]. Besides, the amount remaining at 0.5 h, 1 μM in series [1] (setting [4]) amounted to 96.2 ± 3.2%; in series [2] (setting [4]) it was 90.2 ± 0.5%; in series [3] (setting [4]), 41.2 ± 0.4%. The results for the share remaining at 1 h, 1 μM in series [1] (setting [5]), in series [2] (setting [5]) and in series [3] (setting [5]) were 94.1 ± 3.3%, 85.2 ± 0.3% and 21 ± 0.8%, respectively. Also, the phospho-SAMHD1 levels entry with phospho-SAMHD1 is “lower than pre-treatment levels”. For the same molecule, the “HBV DNA in the liver, single agent” value in the series on HBV genotype C (1 mg/kg i.v. once a day, alone) is given as “did not reduce”. For the same molecule, the “HBV DNA in the liver, combination with ETV compared with ETV alone” value in the series with HBV genotype C (1 mg/kg i.v. plus ETV 0.03 mg/kg p.o. once a day) was “drastically suppressed”. Also, the “phosphorylation of STAT1, STAT2, and STAT3” value in the series with JAK/STAT signaling was “not induced”. Moreover, the “anti-HCV activity (HCV replicon RNA) with AhR siRNA” value with HCV replicon cells (AhR siRNA) is listed as “not present”. Further, the “anti-HCV activity (HCV replicon RNA) with control siRNA” value in the series on HCV replicon cells (control siRNA) was “significant anti-HCV activity”. Also, in the series on AhR signaling pathway, the “CYP1A2 mRNA expression” value is given as “increased expression”.
